Reference: patent US6610689B2, “HIV protease inhibitors based on amino acid derivatives” (priority 2001, dated 2003)
Where two headings read alike, the source gives them in different places.

Biological target: T1, HIV protease (Human immunodeficiency virus type 1 group M subtype B, UniProt P04585)
T1 construct: A third viral enzyme known as protease then cleaves the polyproteins
Test: Enzymatic Assay for Determining the Inhibition Constant (Ki) of Synthetic Compounds Targeting the HIV Protease (fluorometric FRET assay)
Assay type: biochemical
Procedure, shortened: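 Fluorometric FRET assay following protease cleavage of an EDANS/DABCYL-labelled substrate. Initial velocities without (Vo) and with inhibitor (Vi) measured; Ki derived from the Henderson equation using inhibitor and substrate concentrations and Km.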

[1] = Table 1, compounds of formula I, read-out: Ki (anti-protease activity)

Structure (SMILES)	Ki	further results
COC(=O)N[C@@H](Cc1c[nH]c2ccccc12)C(=O)NCCCC[C@@H](CO)N(CC(C)C)S(=O)(=O)c1ccc(N)cc1 [Example 178, (2S,2′S) 2-N-(4-Aminobenzenesulfonyl)-2-N-isobutyl-6-N-(N′α-methoxycarbonyl-S-tryptophanyl)-2,6-diaminohexanol]	2 nM	
Cc1ccc(S(=O)(=O)N(CC(C)C)[C@@H](CCCCNC(=O)[C@@H]2C[C@@H](O)CN2S(=O)(=O)c2ccccc2)C(=O)O)cc1 (relative stereo) [Example 17, Nα-Isobutyl-Nα-(4-methylbenzenesulfonyl)-Nε-[N′α-(benzenesulfonyl)-4-trans-hydroxy-L-prolyl]-L-lysine]		Ki (Anti-protease activity, read-out: Ki): 55 nM
Cc1ccc(S(=O)(=O)N[C@@H](Cc2cc3ccccc3s2)C(=O)NCCCC[C@@H](C(=O)O)N(CC(C)C)S(=O)(=O)c2ccc(C)cc2)cc1 [Example 42, Nα-Isobutyl-Nα-(4-methylbenzenesulfonyl)-Nε-[N′α-(4-methylbenzenesulfonyl)-L-3-(2-thianaphthyl)-alanyl]-L-lysine]	256 nM	
Cc1ccc(S(=O)(=O)N(CC(C)C)[C@H](CO)CCCCNC(=O)[C@H](Cc2ccccc2)NS(=O)(=O)c2cccs2)cc1 [Example 122, (2S,2′S) 2-N-Isobutyl-2-N-(4-methylbenzenesulfonyl)-6-N-[N′α-(2-thiophenesulfonyl)-S-phenylalanyl]-2,6-diaminohexanol]		Ki [1]: 8.2 nM
Cc1ccc(S(=O)(=O)N(CC(C)C)[C@@H](CCCCNC(=O)CNc2cccnc2)C(=O)O)cc1 [Example 106, Nα-Isobutyl-Nα-(4-methylbenzenesulfonyl)-Nε-[N′α-(3-pyridyl)glycyl]-L-lysine]	> 300 nM	
CC(C)CN([C@H](CO)CCCCNC(=O)[C@H](Cc1c[nH]c2ccccc12)NC(=O)CC(C)(C)C)S(=O)(=O)c1ccc(N)cc1 [Example 185, (2S,2′S) 2-N-(4-Aminobenzenesulfonyl)-2-N-isobutyl-6-N-(N′α-tert-butylacetyl-S-tryptophanyl)-2,6-diaminohexanol]	3.1 nM	
Cc1ccc(S(=O)(=O)N(CC(C)C)[C@@H](CCCCNC(=O)[C@H](Cc2ccccc2)NC(=O)C(F)(F)F)C(=O)O)cc1 [Example 101, Nα-Isobutyl-Nα-(4-methylbenzenesulfonyl)-Nε-(N′α-trifluoroacetyl-L-phenylalanyl)-L-lysine]	2.9 nM	
CC(C)CN([C@@H](CCCCNC(=O)[C@H](Cc1ccccc1)NS(=O)(=O)c1cccs1)C(=O)O)S(=O)(=O)c1ccc(N)cc1 [Example 46, Nα-(4-Aminobenzenesulfonyl)-Nα-isobutyl-Nε-[N′α-(2-thiophenesulfonyl)-L-phenylalanyl]-L-lysine]	0.477 nM	
Cc1ccc(S(=O)(=O)N(CC(C)C)[C@@H](CCCCNC(=O)CNc2ccccn2)C(=O)O)cc1 [Example 108, Nα-Isobutyl-Nα-(4-methylbenzenesulfonyl)-Nε-[N′α-(2-pyridyl)glycyl]-L-lysine]		Ki [1]: > 300 nM
Cc1ccc(S(=O)(=O)N(CC(C)C)[C@@H](CCCCNC(=O)[C@H](CC(N)=O)NC(=O)c2ccccc2)C(=O)O)cc1 [Example 63, Nα-Isobutyl-Nα-(4-methylbenzenesulfonyl)-Nε-(N′α-benzoyl-L-asparagyl)-L-lysine]	193 nM	
Cc1ccc(S(=O)(=O)N(CC(C)C)[C@@H](CCCCNC(=O)CNCCN2CCOCC2)C(=O)O)cc1 [Example 111, Nα-Isobutyl-Nα-(4-methylbenzenesulfonyl)-Nε-[N′α-(4-niorpholinyl-N-ethyl)glycyl]-L-lysine]	> 300 nM	
Cc1ccc(S(=O)(=O)N[C@@H](Cc2ccccc2)C(=O)NCCCC[C@H](C(=O)O)N(CC(C)C)S(=O)(=O)c2ccc(C)cc2)cc1 [Example 67, Nα-Isobutyl-Nα-(4-methylbenzenesulfonyl)-Nε-[N′α-(4-methylbenzenesulfonyl)-L-phenylalanyl]-D-lysine]	> 300 nM	
Cc1ccc(S(=O)(=O)N(CC(C)C)[C@H](CO)CCCCNC(=O)[C@H](Cc2c[nH]c3ccccc23)NS(=O)(=O)c2ccc(N)cc2)cc1 [Example 161, (2S,2′S) 2-N-Isobutyl-2-N-(4-methylbenzenesulfonyl)-6-N-[N′α-(4-aminobenzenesulfonyl)-S-tryptophanyl]-2,6-diaminohexanol]	1.4 nM	
Cc1ccc(S(=O)(=O)N(CC(C)C)[C@@H](CCCCNC(=O)[C@H](Cc2ccccc2)NC(=O)OC(C)(C)C)C(=O)O)cc1 [Example 78, Nα-Isobutyl-Nα-(4-methylbenzenesulfonyl)-Nε-(N′α-tert-butoxycarbonyl-L-phenylalanyl)-L-lysine]	2.5 nM	
Cc1ccc(S(=O)(=O)N(CC(C)C)[C@@H](CCCCNC(=O)[C@H](Cc2ccccc2)NS(=O)(=O)c2cccs2)C(N)=O)cc1 [Example 58, Nα-Isobutyl-Nα-(4-methylbenzenesulfonyl)-Nε-[N′α-(2-thiophenesulfonyl)-L-phenylalanyl]-L-lysinamide]	5.2 nM	
Cc1ccc(S(=O)(=O)N[C@@H](Cc2ccc([N+](=O)[O-])cc2)C(=O)NCCCC[C@@H](CO)N(CC(C)C)S(=O)(=O)c2ccc(C)cc2)cc1 [Example 124, (2S,2′S) 2-N-Isobutyl-2-N-(4-methylbenzenesulfonyl)-6-N-[N′α-(4-methylbenzenesulfonyl)-S-4-nitrophenylalanyl]-2,6-diaminohexanol]	12 nM	

Structure (SMILES)	Ki	further results
Cc1ccc(S(=O)(=O)N(CC(C)C)[C@@H](CCCCNC(=O)[C@H](Cc2ccccc2)NC(=O)NCCO)C(=O)O)cc1 [Example 199, Nα-Isobutyl-Nα-(4-methylbenzenesulfonyl)-Nε-(N′α-ethanolaminocarbonyl-L-phenylalanyl)-L-lysine]	2.2 nM	
Cc1ccc(S(=O)(=O)N(CC(C)C)[C@@H](CCCCNC(=O)[C@H](Cc2ccccc2)NC(=O)C(C)(C)C)C(=O)O)cc1 [Example 52, Nα-Isobutyl-Nα-(4-methylbenzenesulfonyl)-Nε-(N′α-pivaloyl-L-phenylalanyl)-L-lysine]	0.545 nM	
Cc1ccc(S(=O)(=O)N(CC(C)C)[C@@H](CCCCNC(=O)[C@H](Cc2ccccc2)NC(=O)OCc2ccccc2)C(=O)O)cc1 [Example 31, Nα-Isobutyl-Nα-(4-methylbenzenesulfonyl)-Nε-(N′α-benzyloxycarbonyl-L-phenylalanyl)-L-lysine]	2.3 nM	
Cc1ccc(S(=O)(=O)N[C@H](C(=O)NCCCC[C@@H](C(=O)O)N(CC(C)C)S(=O)(=O)c2ccc(C)cc2)c2ccccc2)cc1 [Example 27, Nα-Isobutyl-Nα-(4-methylbenzenesulfonyl)-Nε-[N′α-(4-methylbenzenesulfonyl)-L-phenylglycyl]-L-lysine]	11 nM	
CC(C)CN([C@H](CO)CCCCNC(=O)[C@H](Cc1c[nH]c2ccccc12)NS(=O)(=O)c1ccccc1)S(=O)(=O)c1ccc(N)cc1 [Example 167, (2S,2′S) 2-N-(4-Aminobenzenesulfonyl)-2-N-isobutyl-6-N-(N′α-benzenesulfonyl-S-tryptophanyl)-2,6-diaminohexanol]	1.5 nM	
Cc1ccc(S(=O)(=O)N[C@@H](CC(N)=O)C(=O)NCCCC[C@@H](C(=O)O)N(CC(C)C)S(=O)(=O)c2ccc(C)cc2)cc1 [Example 61, Nα-Isobutyl-Nα-(4-methylbenzenesulfonyl)-Nε-[N′α-(4-methylbenzenesulfonyl)-L-asparagyl]-L-lysine]	296 nM	
Cc1ccc(S(=O)(=O)N(CC(C)C)[C@@H](CCCCNC(=O)[C@@H](N)[C@@H](C)OCc2ccccc2)C(=O)O)cc1 [Example 91, Nα-Isobutyl-Nα-(4-methylbenzenesulfonyl)-Nε-(O-benzyl-L-threonyl)-L-lysine]	10 nM	
Cc1ccc(S(=O)(=O)N(CC(C)C)[C@@H](CCCCNC(=O)[C@H](Cc2c[nH]c3ccccc23)NC(=O)CCc2ccccc2)C(=O)O)cc1 [Example 133, Nα-Isobutyl-Nα-(4-methylbenzenesulfonyl)-Nε-(N′α-dihydrocinnamoyl-L-tryptophanyl)-L-lysine]	0.606 nM	
Cc1ccc(S(=O)(=O)N(CC(C)C)[C@H](CO)CCCCNC(=O)[C@H](Cc2ccccc2)NC(=O)C(C)(C)C)cc1 [Example 119, (2S,2′S) 2-N-Isobutyl-2-N-(4-methylbenzenesulfonyl)-6-N-(N′α-pivaloyl-S-phenylalanyl)-2,6-diaminohexanol]	3.9 nM	
Cc1ccc(S(=O)(=O)N(CC(C)C)[C@@H](CCCCNC(=O)[C@H](Cc2ccccc2)NS(=O)(=O)c2ccc(F)cc2)C(=O)O)cc1 [Example 18, Nα-Isobutyl-Nα-(4-methylbenzenesulfonyl)-Nε-[N′α-(4-fluorobenzenesulfonyl)-L-phenylalanyl]-L-lysine]	8.3 nM	
Cc1ccc(S(=O)(=O)N(CC(C)C)[C@@H](CCCCNC(=O)[C@H](Cc2c[nH]c3ccccc23)NC(=O)C(C)(C)C)C(=O)O)cc1 [Example 100, Nα-Isobutyl-Nα-(4-methylbenzenesulfonyl)-Nε-(N′α-pivaloyl-L-tryptophanyl)-L-lysine]	0.388 nM	
CC(=O)N[C@@H](Cc1ccccc1)C(=O)NCCCC[C@@H](CO)N(CC(C)C)S(=O)(=O)c1ccc(C)cc1 [Example 118, (2S,2′S) 2-N-Isobutyl-2-N-(4-methylbenzenesulfonyl)-6-N-(N′α-acetyl-S-phenylalanyl)-2,6-diaminohexanol]	13 nM	
Cc1ccc(S(=O)(=O)N[C@@H](Cc2c[nH]c3ccccc23)C(=S)NCCCC[C@@H](CO)N(CC(C)C)S(=O)(=O)c2ccc(C)cc2)cc1 [Example 102]	51 nM	
Cc1ccc(S(=O)(=O)N(CC(C)C)[C@@H](CCCCNC(=O)[C@H](CC(N)=O)NS(=O)(=O)c2ccccc2)C(=O)O)cc1 [Example 25]	5.3 nM	
Cc1ccc(S(=O)(=O)N[C@@H](COCc2ccccc2)C(=O)NCCCC[C@@H](C(=O)O)N(CC(C)C)S(=O)(=O)c2ccc(C)cc2)cc1 [Example 40, Nα-Isobutyl-Nα-(4-methylbenzenesulfonyl)-Nε-[N′α-(4-methylbenzenesulfonyl)-O-benzyl-L-seryl]-L-lysine]	8 nM	
CC(C)CN([C@@H](CCCCNC(=O)[C@H](Cc1c[nH]c2ccccc12)NS(=O)(=O)c1ccc(N)cc1)C(=O)O)S(=O)(=O)c1ccc(N)cc1 [Example 5, Nα-Isobutyl-Nα-(4-aminobenzenesulfonyl)-Nε-[N′α-(4-aminobenzenesuifonyl)-L-tryptophanyl]-L-lysine]	0.459 nM	
